According to the supplement of paper PMC10307832:

Experiments:
Assay in all cases: relative viability (nuclei count vs DMSO), 5 days (fraction); higher = more cells survive
[1] = compound: C/C(=N\NC(=S)N1CCC1)/C2=CC=CC=N2 + Cc1cc(Nc2cc(N3CCN(C)CC3)nc(Sc3ccc(NC(=O)C4CC4)cc3)n2)n[nH]1 [Tozasertib] (partner 0.1 µM)
How it was run: (§1)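 Lung cancer cell lines in 1536-well plates were dosed by pin tool the day after seeding, either with one drug alone or with a fixed anchor-drug dose plus five library-drug doses (not always all listed) in √10 steps. After 5 days, cells were fixed and their nuclei stained in one step (final 0.05% Triton X-100, 1% formaldehyde, 1 ug/ml Hoechst), then counted on 4× images. Relative viability is the nuclei count in treated wells divided by that in vehicle wells. Values are medians of duplicate plates.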

[2] = compound: C/C(=N\NC(=S)N1CCC1)/C2=CC=CC=N2 + Cc1nc(Nc2ncc(C(=O)Nc3c(C)cccc3Cl)s2)cc(N2CCN(CCO)CC2)n1 [Dasatinib] (partner 0.075 µM)
How it was run: as §1

[3] = compound: C/C(=N\NC(=S)N1CCC1)/C2=CC=CC=N2 + COc1cc2c(Oc3ccc(NC(=O)C4(C(=O)Nc5ccc(F)cc5)CC4)cc3F)ccnc2cc1OCCCN1CCOCC1 [Foretinib] (partner 0.25 µM)
How it was run: as §1

[4] = compound: C/C(=N\NC(=S)N1CCC1)/C2=CC=CC=N2 + N=C(N)NC(=N)NCCc1ccccc1 [Phenformin] (partner 250 µM)
How it was run: as §1

[5] = compound: C/C(=N\NC(=S)N1CCC1)/C2=CC=CC=N2 + COc1cccc2cc(-c3nc([C@H]4CC[C@H](C(=O)O)CC4)n4ncnc(N)c34)[nH]c12 [OSI-027] (partner 0.5 µM)
How it was run: as §1

[6] = compound: C/C(=N\NC(=S)N1CCC1)/C2=CC=CC=N2 + CCNC(=O)c1noc(-c2cc(C(C)C)c(O)cc2O)c1-c1ccc(CN2CCOCC2)cc1 [Luminespib] (partner 0.01 µM)
How it was run: as §1

[7] = compound: C/C(=N\NC(=S)N1CCC1)/C2=CC=CC=N2
How it was run: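 Viability here means nuclei in treated wells divided by nuclei in vehicle wells, reported as the median across plates. Only plates with control CV below 25% and at least one doubling passed. Lung cancer cell lines in 1536-well plates were exposed to five √10-spaced library-drug doses for 5 days and counted from 4× Hoechst images in MetaXpress.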

## NCI-H1623
[1]; first compound 0.05 µM
  relative viability: 0.32
[1]; first compound 0.1581 µM
  relative viability: 0.329
[1]; first compound 0.5 µM
  relative viability: 0.323
[1]; first compound 1.581 µM
  relative viability: 0.269
[1]; first compound 5 µM
  relative viability: 0.266
[2]; first compound 0.05 µM
  relative viability: 0.32
[2]; first compound 0.1581 µM
  relative viability: 0.364
[2]; first compound 0.5 µM
  relative viability: 0.293
[2]; first compound 1.581 µM
  relative viability: 0.276
[2]; first compound 5 µM
  relative viability: 0.528
[3]; first compound 0.05 µM
  relative viability: 0.39
[3]; first compound 0.1581 µM
  relative viability: 0.372
[3]; first compound 0.5 µM
  relative viability: 0.414
[3]; first compound 1.581 µM
  relative viability: 0.347
[3]; first compound 5 µM
  relative viability: 0.622
[4]; first compound 0.05 µM
  relative viability: 0.366
[4]; first compound 0.1581 µM
  relative viability: 0.337
[4]; first compound 0.5 µM
  relative viability: 0.424
[4]; first compound 1.581 µM
  relative viability: 0.349
[4]; first compound 5 µM
  relative viability: 0.636
[5]; first compound 0.05 µM
  relative viability: 0.336
[5]; first compound 0.1581 µM
  relative viability: 0.367
[5]; first compound 0.5 µM
  relative viability: 0.332
[5]; first compound 1.581 µM
  relative viability: 0.268
[5]; first compound 5 µM
  relative viability: 0.293
[6]; first compound 0.05 µM
  relative viability: 0.241
[6]; first compound 0.1581 µM
  relative viability: 0.295
[6]; first compound 0.5 µM
  relative viability: 0.303
[6]; first compound 1.581 µM
  relative viability: 0.231
[6]; first compound 5 µM
  relative viability: 0.322
[7]; 0.05 µM
  relative viability: 0.395
[7]; 0.1581 µM
  relative viability: 0.415
[7]; 0.5 µM
  relative viability: 0.403
[7]; 1.581 µM
  relative viability: 0.357
[7]; 5 µM
  relative viability: 0.32
